In PubChem BioAssay (NCI):
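Following 48 hours of exposure in 96-well plates, responses at five concentrations were used to interpolate endpoints linearly. Here, GI50 denotes the concentration required for 50% inhibition of growth. TGI: total growth inhibition.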

Key:
Assay in all cases: NCI anticancer screen, dose series, 48 h
K-562 leukemia = tested on: K-562 leukemia
DLD-1 colon = tested on: DLD-1 colon
HCT-116 colon = tested on: HCT-116 colon
SK-MEL-28 melanoma = tested on: SK-MEL-28 melanoma
OVCAR-3 ovarian = tested on: OVCAR-3 ovarian
OVCAR-5 ovarian = tested on: OVCAR-5 ovarian
U251 CNS = tested on: U251 CNS
TK-10 renal = tested on: TK-10 renal
M14 melanoma = tested on: M14 melanoma
UO-31 renal = tested on: UO-31 renal
HCT-15 colon = tested on: HCT-15 colon
EKVX NSCLC = tested on: EKVX NSCLC
786-0 renal = tested on: 786-0 renal
HT29 colon = tested on: HT29 colon
DMS 114 small cell lung = tested on: DMS 114 small cell lung
LOX IMVI melanoma = tested on: LOX IMVI melanoma
NCI-H23 lung = tested on: NCI-H23 lung
XF 498 CNS = tested on: XF 498 CNS
SNB-78 CNS = tested on: SNB-78 CNS
SW-620 colon = tested on: SW-620 colon
MOLT-4 leukemia = tested on: MOLT-4 leukemia
SNB-75 CNS = tested on: SNB-75 CNS
SK-OV-3 ovarian = tested on: SK-OV-3 ovarian
A549 NSCLC = tested on: A549 NSCLC
SNB-19 CNS = tested on: SNB-19 CNS
LXFL 529 NSCLC = tested on: LXFL 529 NSCLC
NCI-H522 lung = tested on: NCI-H522 lung
RPMI-8226 leukemia = tested on: RPMI-8226 leukemia
HL-60(TB) leukemia = tested on: HL-60(TB) leukemia
COLO 205 colon = tested on: COLO 205 colon
A498 renal = tested on: A498 renal
SN12C renal = tested on: SN12C renal
KM12 colon = tested on: KM12 colon
M19-MEL melanoma = tested on: M19-MEL melanoma
HCC-2998 colon = tested on: HCC-2998 colon
NCI-H460 lung = tested on: NCI-H460 lung
SR leukemia = tested on: SR leukemia
SF-295 CNS = tested on: SF-295 CNS
UACC-62 melanoma = tested on: UACC-62 melanoma
IGROV1 ovarian = tested on: IGROV1 ovarian
HOP-92 NSCLC = tested on: HOP-92 NSCLC
OVCAR-4 ovarian = tested on: OVCAR-4 ovarian
NCI-H226 lung = tested on: NCI-H226 lung
CAKI-1 renal = tested on: CAKI-1 renal
SF-539 CNS = tested on: SF-539 CNS
SK-MEL-5 melanoma = tested on: SK-MEL-5 melanoma
SK-MEL-2 melanoma = tested on: SK-MEL-2 melanoma
CCRF-CEM leukemia = tested on: CCRF-CEM leukemia
MALME-3M melanoma = tested on: MALME-3M melanoma
RXF 393 renal = tested on: RXF 393 renal
OVCAR-8 ovarian = tested on: OVCAR-8 ovarian
ACHN renal = tested on: ACHN renal
UACC-257 melanoma = tested on: UACC-257 melanoma
RXF-631 renal = tested on: RXF-631 renal
DMS 273 small cell lung = tested on: DMS 273 small cell lung
KM20L2 colon = tested on: KM20L2 colon
HOP-62 NSCLC = tested on: HOP-62 NSCLC
SF-268 CNS = tested on: SF-268 CNS
HOP-18 NSCLC = tested on: HOP-18 NSCLC

## CCCCCCC[CH2][Sn]1([CH2]CCCCCCC)[O]C(=O)c2cccnc2[O]1
K-562 leukemia
  GI50: > 100 µM
  TGI: > 100 µM
DLD-1 colon
  GI50: > 100 µM
  TGI: > 100 µM
HCT-116 colon
  GI50: > 100 µM
  TGI: > 100 µM
SK-MEL-28 melanoma
  GI50: > 100 µM
  TGI: > 100 µM
OVCAR-3 ovarian
  GI50: > 100 µM
  TGI: > 100 µM
OVCAR-5 ovarian
  GI50: > 100 µM
  TGI: > 100 µM
U251 CNS
  GI50: > 100 µM
  TGI: > 100 µM
TK-10 renal
  GI50: > 100 µM
  TGI: > 100 µM
M14 melanoma
  GI50: > 100 µM
  TGI: > 100 µM
UO-31 renal
  GI50: > 100 µM
  TGI: > 100 µM
HCT-15 colon
  GI50: > 100 µM
  TGI: > 100 µM
EKVX NSCLC
  GI50: > 100 µM
  TGI: > 100 µM
786-0 renal
  GI50: > 100 µM
  TGI: > 100 µM
HT29 colon
  GI50: > 100 µM
  TGI: > 100 µM
DMS 114 small cell lung
  GI50: > 100 µM
  TGI: > 100 µM
LOX IMVI melanoma
  GI50: > 100 µM
  TGI: > 100 µM
NCI-H23 lung
  GI50: > 100 µM
  TGI: > 100 µM
XF 498 CNS
  GI50: 42.3 µM
  TGI: > 100 µM
SNB-78 CNS
  GI50: > 100 µM
  TGI: > 100 µM
SW-620 colon
  GI50: > 100 µM
  TGI: > 100 µM
MOLT-4 leukemia
  GI50: > 100 µM
  TGI: > 100 µM
SNB-75 CNS
  GI50: > 100 µM
  TGI: > 100 µM
SK-OV-3 ovarian
  GI50: > 100 µM
  TGI: > 100 µM
A549 NSCLC
  GI50: > 100 µM
  TGI: > 100 µM
SNB-19 CNS
  GI50: > 100 µM
  TGI: > 100 µM
LXFL 529 NSCLC
  GI50: > 100 µM
  TGI: > 100 µM
NCI-H522 lung
  GI50: > 100 µM
  TGI: > 100 µM
RPMI-8226 leukemia
  GI50: > 100 µM
  TGI: > 100 µM
HL-60(TB) leukemia
  GI50: > 100 µM
  TGI: > 100 µM
COLO 205 colon
  GI50: > 100 µM
  TGI: > 100 µM
A498 renal
  GI50: > 100 µM
  TGI: > 100 µM
SN12C renal
  GI50: > 100 µM
  TGI: > 100 µM
KM12 colon
  GI50: > 100 µM
  TGI: > 100 µM
M19-MEL melanoma
  GI50: > 100 µM
  TGI: > 100 µM
HCC-2998 colon
  GI50: > 100 µM
  TGI: > 100 µM
NCI-H460 lung
  GI50: > 100 µM
  TGI: > 100 µM
SR leukemia
  GI50: > 100 µM
  TGI: > 100 µM
SF-295 CNS
  GI50: > 100 µM
  TGI: > 100 µM
UACC-62 melanoma
  GI50: > 100 µM
  TGI: > 100 µM
IGROV1 ovarian
  GI50: > 100 µM
  TGI: > 100 µM
HOP-92 NSCLC
  GI50: > 100 µM
  TGI: > 100 µM
OVCAR-4 ovarian
  GI50: > 100 µM
  TGI: > 100 µM
NCI-H226 lung
  GI50: > 100 µM
  TGI: > 100 µM
CAKI-1 renal
  GI50: > 100 µM
  TGI: > 100 µM
SF-539 CNS
  GI50: > 100 µM
  TGI: > 100 µM
SK-MEL-5 melanoma
  GI50: > 100 µM
  TGI: > 100 µM
SK-MEL-2 melanoma
  GI50: > 100 µM
  TGI: > 100 µM
CCRF-CEM leukemia
  GI50: > 100 µM
  TGI: > 100 µM
MALME-3M melanoma
  GI50: > 100 µM
  TGI: > 100 µM
RXF 393 renal
  GI50: > 100 µM
  TGI: > 100 µM
OVCAR-8 ovarian
  GI50: > 100 µM
  TGI: > 100 µM
ACHN renal
  GI50: > 100 µM
  TGI: > 100 µM
UACC-257 melanoma
  GI50: > 100 µM
  TGI: > 100 µM
RXF-631 renal
  GI50: > 100 µM
  TGI: > 100 µM
DMS 273 small cell lung
  GI50: > 100 µM
  TGI: > 100 µM
KM20L2 colon
  GI50: > 100 µM
  TGI: > 100 µM

## Cn1nc(-c2ccccc2)c2c(/C=C/c3ccccc3)onc2c1=O
K-562 leukemia
  TGI: > 100 µM
DLD-1 colon
  TGI: > 100 µM
HCT-116 colon
  TGI: > 100 µM
SK-MEL-28 melanoma
  TGI: > 100 µM
HOP-62 NSCLC
  TGI: > 100 µM
OVCAR-3 ovarian
  TGI: > 100 µM
OVCAR-5 ovarian
  TGI: > 100 µM
U251 CNS
  TGI: > 100 µM
TK-10 renal
  TGI: > 100 µM
M14 melanoma
  TGI: > 100 µM
UO-31 renal
  TGI: > 100 µM
HCT-15 colon
  TGI: > 100 µM
EKVX NSCLC
  TGI: > 100 µM
786-0 renal
  TGI: > 100 µM
HT29 colon
  TGI: > 100 µM
DMS 114 small cell lung
  TGI: > 100 µM
LOX IMVI melanoma
  TGI: > 100 µM
NCI-H23 lung
  TGI: > 100 µM
XF 498 CNS
  TGI: 72.4 µM
SNB-78 CNS
  TGI: > 100 µM
SF-268 CNS
  TGI: > 100 µM
MOLT-4 leukemia
  TGI: > 100 µM
SNB-75 CNS
  TGI: 64.5 µM
SK-OV-3 ovarian
  TGI: > 100 µM
A549 NSCLC
  TGI: > 100 µM
SNB-19 CNS
  TGI: > 100 µM
LXFL 529 NSCLC
  TGI: > 100 µM
NCI-H522 lung
  TGI: > 100 µM
HOP-18 NSCLC
  TGI: > 100 µM
RPMI-8226 leukemia
  TGI: > 100 µM
HL-60(TB) leukemia
  TGI: > 100 µM
COLO 205 colon
  TGI: > 100 µM
A498 renal
  TGI: > 100 µM
SN12C renal
  TGI: > 100 µM
KM12 colon
  TGI: > 100 µM
M19-MEL melanoma
  TGI: > 100 µM
HCC-2998 colon
  TGI: > 100 µM
NCI-H460 lung
  TGI: > 100 µM
SR leukemia
  TGI: > 100 µM
SF-295 CNS
  TGI: > 100 µM
UACC-62 melanoma
  TGI: > 100 µM
IGROV1 ovarian
  TGI: > 100 µM
HOP-92 NSCLC
  TGI: 98.2 µM
NCI-H226 lung
  TGI: > 100 µM
CAKI-1 renal
  TGI: > 100 µM
SF-539 CNS
  TGI: > 100 µM
SK-MEL-5 melanoma
  TGI: > 100 µM
SK-MEL-2 melanoma
  TGI: > 100 µM
CCRF-CEM leukemia
  TGI: > 100 µM
MALME-3M melanoma
  TGI: > 100 µM
RXF 393 renal
  TGI: > 100 µM
OVCAR-8 ovarian
  TGI: > 100 µM
ACHN renal
  TGI: > 100 µM
UACC-257 melanoma
  TGI: > 100 µM
RXF-631 renal
  TGI: > 100 µM
KM20L2 colon
  TGI: > 100 µM
